Peptide text beside a SMILES is read from it.
Assays:
SD rats [1] = assay: Gross necropsy and weight of vital organs in acute toxicity study; assay type: in vivo, Sprague Dawley rats; conditions: for Adrenals, absolute weight / Body weight / Brain, absolute weight / Heart, absolute weight / Kidneys, absolute weight / Liver, absolute weight / Ovaries, absolute weight / Spleen, absolute weight / Thymus, absolute weight / Thyroid, absolute weight / Uterus, absolute weight / Epididymides, absolute weight / Testis, absolute weight: day 15, mean ± SD
Protocol: Forty SD rats (20 males and 20 females) were randomly divided into 4 groups (Figure 1). All rats were given F3 once on the day of the experiment.
Twelve SD rats (6 males, 6 females) were given a daily subcutaneous injection of F3 at a dose of 10.0 mg/kg for consecutive 14 days. The first day of administration was recorded as day 1.
(§1) For 14 days, the body weight was measured before F3 administration on the first day of the experiment and once a week thereafter, with additional measurements on the day before and on the day of the planned autopsy. Food intake was recorded once a week. The rats were anesthetized by inhalation of 70% CO2/30% O2 before dissection, and blood samples were taken for hematology and biochemical analysis. The collected tissue was weighed and preserved for pathological examination.
After blood was collected at the predetermined time points, all rats were euthanized and subjected to a comprehensive general autopsy, which included a thorough examination of the external surface of the body, all foramen, cranial cavity, external surface of the brain, chest, abdomen, pelvic cavity, viscera, cervix, and genitalia. The adrenal gland, brain (brain, cerebellum, and brain stem), epididymis, heart, kidney, liver, ovary, spleen, testis, thymus, thyroid gland, and uterus were carefully collected, weighed, and documented before being kept in 10% neutral formalin buffer (10% NBF).

SD rats [2] = assay: Food intake and body weight gain in acute toxicity study; assay type: in vivo, Sprague Dawley rats; conditions: single or repeated s.c. injection
Protocol: as §1

[3] = female SD rats, s.c. 10.0 mg/kg daily x14 d, n=6
[4] = female SD rats, single s.c. 1.0 mg/kg, n=5
[5] = female SD rats, single s.c. 10.0 mg/kg, n=5
[6] = female SD rats, single s.c. 100.0 mg/kg, n=5
[7] = male SD rats, s.c. 10.0 mg/kg daily x14 d, n=6
[8] = male SD rats, single s.c. 1.0 mg/kg, n=5
[9] = male SD rats, single s.c. 10.0 mg/kg, n=5
[10] = male SD rats, single s.c. 100.0 mg/kg, n=5

SMILES: CC[C@H](C)[C@H](NC(=O)[C@H](CO)NC(=O)CNC(=O)[C@H](CC(C)C)NC(=O)[C@@H](NC(=O)CNC(=O)[C@H](Cc1ccccc1)NC(=O)[C@H](CC(C)C)NC(=O)CN)C(C)C)C(=O)N[C@@H](C)C(=O)N[C@@H](CCCCN)C(=O)N[C@@H](Cc1c[nH]cn1)C(=O)N[C@H](C(=O)N[C@@H](CC(C)C)C(=O)N1CCC[C@H]1C(=O)N[C@@H](Cc1c[nH]cn1)C(=O)N[C@H](C(=O)N[C@H](C(=O)N1CCC[C@H]1C(=O)N[C@H](C(=O)N[C@H](C(=O)N[C@@H](C)C(=O)N[C@@H](CCC(=O)O)C(=O)N[C@@H](CCCCN)C(=O)N[C@@H](CC(C)C)C(N)=O)[C@@H](C)CC)C(C)C)C(C)C)C(C)C)C(C)C [F3, Caerin 1.9] (H-GLFGVLGSIAKHVLPHVVPVIAEKL-NH2)
- gross necropsy findings (SD rats [1]; SD rats, s.c. 10.0 mg/kg daily x14 d, all rats): diffuse subcutaneous bleeding at the injection site
- influence on absolute and relative organ weight (SD rats [1]; SD rats, single or repeated s.c. injections): no influence
- gross necropsy findings (SD rats [1]; SD rats, single s.c. 100.0 mg/kg): skin scab and thickening at the administration site in all male rats and four female rats
- Adrenals, absolute weight (SD rats [1]; [3]): 0.0793 ± 0.0101 g
- Body weight (SD rats [1]; [3]): 233.55 ± 16.03 g
- Brain, absolute weight (SD rats [1]; [3]): 1.9517 ± 0.0244 g
- Heart, absolute weight (SD rats [1]; [3]): 1.1247 ± 0.1287 g
- Kidneys, absolute weight (SD rats [1]; [3]): 1.7017 ± 0.123 g
- Liver, absolute weight (SD rats [1]; [3]): 7.5278 ± 0.6229 g
- Ovaries, absolute weight (SD rats [1]; [3]): 0.093 ± 0.0151 g
- Spleen, absolute weight (SD rats [1]; [3]): 0.6908 ± 0.0750 g
- Thymus, absolute weight (SD rats [1]; [3]): 0.427 ± 0.0886 g
- Thyroid, absolute weight (SD rats [1]; [3]): 0.0242 ± 0.0053 g
- Uterus, absolute weight (SD rats [1]; [3]): 0.4797 ± 0.1336 g
- Adrenals, absolute weight (SD rats [1]; [4]): 0.0728 ± 0.0097 g
- Body weight (SD rats [1]; [4]): 238.86 ± 7.94 g
- Brain, absolute weight (SD rats [1]; [4]): 2.0504 ± 0.0552 g
- Heart, absolute weight (SD rats [1]; [4]): 1.1086 ± 0.1559 g
- Kidneys, absolute weight (SD rats [1]; [4]): 1.9364 ± 0.118 g
- Liver, absolute weight (SD rats [1]; [4]): 7.7464 ± 0.2893 g
- Ovaries, absolute weight (SD rats [1]; [4]): 0.1036 ± 0.0242 g
- Spleen, absolute weight (SD rats [1]; [4]): 0.57 ± 0.1214 g
- Thymus, absolute weight (SD rats [1]; [4]): 0.5216 ± 0.0746 g
- Thyroid, absolute weight (SD rats [1]; [4]): 0.0282 ± 0.0029 g
- Uterus, absolute weight (SD rats [1]; [4]): 0.6212 ± 0.0948 g
- Adrenals, absolute weight (SD rats [1]; [5]): 0.0758 ± 0.0114 g
- Body weight (SD rats [1]; [5]): 243.48 ± 10.53 g
- Brain, absolute weight (SD rats [1]; [5]): 2.0232 ± 0.044 g
- Heart, absolute weight (SD rats [1]; [5]): 0.999 ± 0.0943 g
- Kidneys, absolute weight (SD rats [1]; [5]): 1.8596 ± 0.1438 g
- Liver, absolute weight (SD rats [1]; [5]): 7.3692 ± 0.709 g
- Ovaries, absolute weight (SD rats [1]; [5]): 0.096 ± 0.0182 g
- Spleen, absolute weight (SD rats [1]; [5]): 0.5508 ± 0.0854 g
- Thymus, absolute weight (SD rats [1]; [5]): 0.535 ± 0.0762 g
- Thyroid, absolute weight (SD rats [1]; [5]): 0.0338 ± 0.005 g
- Uterus, absolute weight (SD rats [1]; [5]): 0.4664 ± 0.1167 g
- Adrenals, absolute weight (SD rats [1]; [6]): 0.076 ± 0.0116 g
- Body weight (SD rats [1]; [6]): 238.86 ± 9.44 g
- Brain, absolute weight (SD rats [1]; [6]): 1.9918 ± 0.0665 g
- Heart, absolute weight (SD rats [1]; [6]): 1.0914 ± 0.0821 g
- Kidneys, absolute weight (SD rats [1]; [6]): 1.924 ± 0.0685 g
- Liver, absolute weight (SD rats [1]; [6]): 7.8582 ± 0.5028 g
- Ovaries, absolute weight (SD rats [1]; [6]): 0.108 ± 0.0223 g
- Spleen, absolute weight (SD rats [1]; [6]): 0.545 ± 0.0571 g
- Thymus, absolute weight (SD rats [1]; [6]): 0.478 ± 0.0725 g
- Thyroid, absolute weight (SD rats [1]; [6]): 0.0344 ± 0.0057 g
- Uterus, absolute weight (SD rats [1]; [6]): 0.5842 ± 0.0922 g
- Adrenals, absolute weight (SD rats [1]; [7]): 0.0612 ± 0.0041 g
- Body weight (SD rats [1]; [7]): 342.57 ± 13.86 g
- Brain, absolute weight (SD rats [1]; [7]): 2.062 ± 0.1162 g
- Epididymides, absolute weight (SD rats [1]; [7]): 1.0408 ± 0.0584 g
- Heart, absolute weight (SD rats [1]; [7]): 1.5727 ± 0.082 g
- Kidneys, absolute weight (SD rats [1]; [7]): 2.5043 ± 0.0600 g
- Liver, absolute weight (SD rats [1]; [7]): 9.9218 ± 0.6297 g
- Spleen, absolute weight (SD rats [1]; [7]): 0.741 ± 0.1802 g
- Testis, absolute weight (SD rats [1]; [7]): 3.3857 ± 0.1596 g
- Thymus, absolute weight (SD rats [1]; [7]): 0.4433 ± 0.0724 g
- Thyroid, absolute weight (SD rats [1]; [7]): 0.0358 ± 0.0092 g
- Adrenals, absolute weight (SD rats [1]; [8]): 0.0564 ± 0.0078 g
- Body weight (SD rats [1]; [8]): 380.74 ± 8.63 g
- Brain, absolute weight (SD rats [1]; [8]): 2.163 ± 0.0999 g
- Epididymides, absolute weight (SD rats [1]; [8]): 0.9464 ± 0.0677 g
- Heart, absolute weight (SD rats [1]; [8]): 1.485 ± 0.1408 g
- Kidneys, absolute weight (SD rats [1]; [8]): 2.8174 ± 0.3469 g
- Liver, absolute weight (SD rats [1]; [8]): 11.4326 ± 0.5122 g
- Spleen, absolute weight (SD rats [1]; [8]): 0.7378 ± 0.14 g
- Testis, absolute weight (SD rats [1]; [8]): 3.328 ± 0.2025 g
- Thymus, absolute weight (SD rats [1]; [8]): 0.545 ± 0.1054 g
- Thyroid, absolute weight (SD rats [1]; [8]): 0.0494 ± 0.0051 g
- Adrenals, absolute weight (SD rats [1]; [9]): 0.0654 ± 0.0073 g
- Body weight (SD rats [1]; [9]): 397.34 ± 21.46 g
- Brain, absolute weight (SD rats [1]; [9]): 2.181 ± 0.1198 g
- Epididymides, absolute weight (SD rats [1]; [9]): 0.9564 ± 0.0348 g
- Heart, absolute weight (SD rats [1]; [9]): 1.728 ± 0.2013 g
- Kidneys, absolute weight (SD rats [1]; [9]): 3.151 ± 0.1131 g
- Liver, absolute weight (SD rats [1]; [9]): 12.5468 ± 0.8106 g
- Spleen, absolute weight (SD rats [1]; [9]): 0.8204 ± 0.1012 g
- Testis, absolute weight (SD rats [1]; [9]): 3.2666 ± 0.0813 g
- Thymus, absolute weight (SD rats [1]; [9]): 0.6256 ± 0.1022 g
- Thyroid, absolute weight (SD rats [1]; [9]): 0.0498 ± 0.0093 g
- Adrenals, absolute weight (SD rats [1]; [10]): 0.066 ± 0.0075 g
- Body weight (SD rats [1]; [10]): 394.58 ± 14.44 g
- Brain, absolute weight (SD rats [1]; [10]): 2.1528 ± 0.0816 g
- Epididymides, absolute weight (SD rats [1]; [10]): 0.9956 ± 0.0459 g
- Heart, absolute weight (SD rats [1]; [10]): 1.6352 ± 0.0401 g
- Kidneys, absolute weight (SD rats [1]; [10]): 2.9858 ± 0.1294 g
- Liver, absolute weight (SD rats [1]; [10]): 12.2242 ± 0.7073 g
- Spleen, absolute weight (SD rats [1]; [10]): 0.793 ± 0.109 g
- Testis, absolute weight (SD rats [1]; [10]): 3.4182 ± 0.3029 g
- Thymus, absolute weight (SD rats [1]; [10]): 0.6608 ± 0.082 g
- Thyroid, absolute weight (SD rats [1]; [10]): 0.0482 ± 0.0075 g
- effect on food intake, body weight, and weight change (SD rats [2]): no effect
